# Tests used:
# Details in all cases: application rate 16 g/ha, post-emergence method, scale from 0 to 100
# AMARE = assay: greenhouse herbicidal activity, post-emergence, AMARE; assay type: in vivo, Amaranthus retroflexus
# Text: (§1) The seeds of the test plants were sown separately for each species. For the pre-emergence treatment, the active ingredients, which had been suspended or emulsified in water, were applied directly after sowing by means of finely distributing nozzles. The containers were irrigated gently to promote germination and growth and subsequently covered with transparent plastic hoods until the test plants had rooted. This cover caused uniform germination of the test plants, unless this had been impaired by the active ingredients. For the post-emergence treatment, the test plants were first grown to a height of 3 to 15 cm, depending on the plant habit, and only then treated with the active ingredients which had been suspended or emulsified in water. For this purpose, the test plants were either sown directly and grown in the same containers, or they were first grown separately as seedlings and transplanted into the test containers a few days prior to treatment. Depending on the species, the test plants were kept at 10-25° C. or 20-35° C., respectively. The test period extended over 2 to 4 weeks. During this time, the test plants were tended, and their response to the individual treatments was evaluated. Evaluation was carried out using a scale from 0 to 100. […]
# ECHCG = assay: greenhouse herbicidal activity, post-emergence, ECHCG; assay type: in vivo, Echinocloa crus-galli
# Text: as §1
# CHEAL = assay: greenhouse herbicidal activity, post-emergence, CHEAL; assay type: in vivo, Chenopodium album
# Text: as §1
# SETVI = assay: greenhouse herbicidal activity, post-emergence, SETVI; assay type: in vivo, Setaria viridis
# Text: as §1
SMILES,herbicidal activity against AMARE (AMARE),herbicidal activity against ECHCG (ECHCG),herbicidal activity against CHEAL (CHEAL),herbicidal activity against SETVI (SETVI)
"COC(=O)CCNC(=O)C(C)Sc1nc(-n2c(=O)cc(C(F)(F)F)n(C)c2=O)c(F)cc1Cl (stereo not shown) [Example 1, Methyl 3-[2-[[3-chloro-5-fluoro-6-[3-methyl-2,6-dioxo-4-(trifluoromethyl)pyrimidin-1-yl]-2-pyridyl]sulfanyl]propanoylamino]propanoate]",very good herbicidal activity (a very good herbicidal activity is given at values of at least 85),very good herbicidal activity (a very good herbicidal activity is given at values of at least 85),very good herbicidal activity (a very good herbicidal activity is given at values of at least 85),very good herbicidal activity (a very good herbicidal activity is given at values of at least 85)
CCOC(=O)CCNC(=O)COc1nc(-n2c(=O)cc(C(F)(F)F)n(C)c2=O)c(F)cc1Cl [Example 2],very good herbicidal activity (a very good herbicidal activity is given at values of at least 85),–,very good herbicidal activity (a very good herbicidal activity is given at values of at least 85),very good herbicidal activity (a very good herbicidal activity is given at values of at least 85)

# Source: patent publication US12247017B2, “Herbicidal uracilpyridines” (BASF SE, priority 2019, dated 2025)
